Experimental data reported in patent US7138361B2, “Herbicidal heterocycles” (E. I. du Pont de Nemours and Company, priority 2000, dated 2006).

Key:
Type in all cases: in vivo
[1] = system: giant foxtail (Setaria faberii); experiment: Test B postemergence
Text: (§1) Seeds selected from barnyardgrass (Echinochloa crus-galli), Surinam grass (Brachiaria decumbens), cocklebur (Xanthium strumarium), corn (Zea mays), crabgrass (Digitaria sanguinalis), giant foxtail (Setaria faberii), lambsquarters (Chenopodium album), morning glory (Ipomoea hederacea), pigweed (Amaranthus retroflexus), rice (Oryza saliva) and velvetleaf (Abutilon theophrasti) were planted and treated preemergence with test chemicals formulated in a non-phytotoxic solvent mixture which included a surfactant.
(§2) At the same time, plants selected from these crop and weed species and also blackgrass (Alopecurus myosuroides), wheat (Triticum aestivum) and wild oat (Avena fatua) were treated with postemergence applications of test chemicals formulated in the same manner. Plants ranged in height from 2 to 18 cm (1- to 4-leaf stage) for postemergence treatments. Plant species in the flooded paddy test consisted of rice (Oryza saliva), smallflower flatsedge (Cyperus difformis), duck salad (Heteranthera limosa) and barnyardgrass (Echinochloa crus-galli) grown to the 2-leaf stage for testing. Treated plants and controls were maintained in a greenhouse for 13 to 15 days, after which time all species were compared to controls and visually evaluated. Plant response ratings, summarized in Table B, are based on a scale of 0 to 100 where 0 is no effect and 100 is complete control. A dash (-) response means no test result.

[2] = system: wheat (Triticum aestivum); experiment: Test B postemergence
Text: as §1, §2

[3] = system: crabgrass (Digitaria sanguinalis); experiment: Test B postemergence
Text: as §1, §2

[4] = system: lambsquarters (Chenopodium album); experiment: Test B postemergence
Text: as §1, §2

[5] = system: velvetleaf (Abutilon theophrasti); experiment: Test B postemergence
Text: as §1, §2

corn (Zea mays) [6] = experiment: Test B postemergence
Text: as §1, §2

[7] = system: morning glory (Ipomoea hederacea); experiment: Test B postemergence
Text: as §1, §2

[8] = system: Surinam grass (Brachiaria decumbens); experiment: Test B postemergence
Text: as §1, §2

wild oat (Avena fatua) = experiment: Test B postemergence
Text: as §1, §2

[9] = system: barnyardgrass (Echinochloa crus-galli); experiment: Test B postemergence
Text: as §1, §2

[10] = system: cocklebur (Xanthium strumarium); experiment: Test B postemergence
Text: as §1, §2

[11] = system: pigweed (Amaranthus retroflexus); experiment: Test B postemergence
Text: as §1, §2

[12] = system: blackgrass (Alopecurus myosuroides); experiment: Test B postemergence
Text: as §1, §2

[13] = system: smallflower flatsedge (Cyperus difformis); experiment: Test C flooded paddy test; details: for Flatsedge plant response rating: Flooded Paddy, scale 0 to 100, 0 no effect, 100 complete control; for Plant response rating, Flatsedge: flooded paddy test, scale 0 to 100 (0 no effect, 100 complete control)
Summary of the method: (§3)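 Each species was cultivated to 2 leaves in flooded paddy pots, then treated. After a greenhouse period of 12–14 days, the plants were scored visually relative to controls from 0 (no effect) to 100 (complete control).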

[14] = system: barnyardgrass (Echinochloa crus-galli); experiment: Test C flooded paddy test; details: for Barnyardgrass plant response rating: Flooded Paddy, scale 0 to 100, 0 no effect, 100 complete control; for Plant response rating, Barnyardgrass: flooded paddy test, scale 0 to 100 (0 no effect, 100 complete control)
Summary of the method: as §3

[15] = system: duck salad (Heteranthera limosa); experiment: Test C flooded paddy test; details: for Ducksalad plant response rating: Flooded Paddy, scale 0 to 100, 0 no effect, 100 complete control; for Plant response rating, Ducksalad: flooded paddy test, scale 0 to 100 (0 no effect, 100 complete control)
Summary of the method: as §3

rice (Oryza saliva) [16] = experiment: Test C flooded paddy test; details: for Rice plant response rating: Flooded Paddy, scale 0 to 100, 0 no effect, 100 complete control; for Plant response rating, Rice: flooded paddy test, scale 0 to 100 (0 no effect, 100 complete control)
Summary of the method: as §3

[17] = system: giant foxtail (Setaria faberii); experiment: Test B preemergence
Summary of the method: (§4)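 Preemergence: seeds planted and treated with test chemicals in non-phytotoxic solvent with surfactant; postemergence on plants 2–18 cm (1- to 4-leaf stage). Kept in greenhouse 13–15 days, then visually rated against controls on a 0 (no effect) to 100 (complete control) scale.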

[18] = system: crabgrass (Digitaria sanguinalis); experiment: Test B preemergence
Summary of the method: as §4

[19] = system: lambsquarters (Chenopodium album); experiment: Test B preemergence
Summary of the method: as §4

[20] = system: velvetleaf (Abutilon theophrasti); experiment: Test B preemergence
Summary of the method: as §4

corn (Zea mays) [21] = experiment: Test B preemergence
Summary of the method: as §4

[22] = system: morning glory (Ipomoea hederacea); experiment: Test B preemergence
Summary of the method: as §4

[23] = system: Surinam grass (Brachiaria decumbens); experiment: Test B preemergence
Summary of the method: as §4

[24] = system: barnyardgrass (Echinochloa crus-galli); experiment: Test B preemergence
Summary of the method: as §4

[25] = system: cocklebur (Xanthium strumarium); experiment: Test B preemergence
Summary of the method: as §4

rice (Oryza saliva) [26] = experiment: Test B preemergence
Summary of the method: as §4

[27] = system: pigweed (Amaranthus retroflexus); experiment: Test B preemergence
Summary of the method: as §4

[28] = Rate 125 g/ha, scale 0 to 100, 0 no effect, 100 complete control
[29] = Rate 500 g/ha, scale 0 to 100, 0 is no effect, 100 is complete control, 13 to 15 days
[30] = Preemergence, Rate 500 g/ha, scale 0 to 100, 0 no effect, 100 complete control
[31] = preemergence, Rate 125 g/ha, scale of 0 to 100 where 0 is no effect and 100 is complete control, 13 to 15 days

CCCCC(CCCC)c1ccn(C2SCN(c3cccc(OC(F)(F)F)c3)C2=O)n1 (centres unmarked) [Compound 115]
Plant response rating, Foxtail, Giant [1, 28]: 0 | Plant response rating, Foxtail, Giant [1, 29]: 0 | Plant response rating, Wheat [2, 28]: 40 | Plant response rating, Wheat [2, 29]: 50 | Plant response rating, Crabgrass [3, 28]: 20 | Plant response rating, Crabgrass [3, 29]: 30 | Plant response rating, Lambsquarters [4, 28]: 0 | Plant response rating, Lambsquarters [4, 29]: 0 | Plant response rating, Velvetleaf [5, 28]: 0 | Plant response rating, Velvetleaf [5, 29]: 0 | Plant response rating, Corn (corn (Zea mays) [6]; [28]): 20 | Plant response rating, Corn (corn (Zea mays) [6]; [29]): 20 | Plant response rating, Morningglory [7, 28]: 0 | Plant response rating, Morningglory [7, 29]: 0 | Plant response rating, Surinam grass [8, 28]: 20 | Plant response rating, Surinam grass [8, 29]: 100 | Plant response rating, Wild Oat (wild oat (Avena fatua); [28]): 30 | Plant response rating, Wild Oat (wild oat (Avena fatua); [29]): 60 | Plant response rating, Barnyardgrass [9, 28]: 0 | Plant response rating, Barnyardgrass [9, 29]: 0 | Plant response rating, Cocklebur [10, 28]: 20 | Plant response rating, Cocklebur [10, 29]: 70 | Plant response rating, Pigweed [11, 28]: 50 | Plant response rating, Pigweed [11, 29]: 60 | Plant response rating, Blackgrass [12, 28]: 0 | Plant response rating, Blackgrass [12, 29]: 0 | Flatsedge plant response rating ([13]; Rate 250 g/ha): 0 | Flatsedge plant response rating ([13]; Rate 500 g/ha): 0 | Plant response rating, Flatsedge ([13]; Rate 62 g/ha): 0 | Plant response rating, Flatsedge ([13]; Rate 125 g/ha): 0 | Barnyardgrass plant response rating ([14]; Rate 250 g/ha): 0 | Barnyardgrass plant response rating ([14]; Rate 500 g/ha): 0 | Plant response rating, Barnyardgrass ([14]; Rate 62 g/ha): 0 | Plant response rating, Barnyardgrass ([14]; Rate 125 g/ha): 0 | Ducksalad plant response rating ([15]; Rate 250 g/ha): 0 | Ducksalad plant response rating ([15]; Rate 500 g/ha): 0 | Plant response rating, Ducksalad ([15]; Rate 62 g/ha): 0 | Plant response rating, Ducksalad ([15]; Rate 125 g/ha): 0 | Rice plant response rating (rice (Oryza saliva) [16]; Rate 250 g/ha): 0 | Rice plant response rating (rice (Oryza saliva) [16]; Rate 500 g/ha): 0 | Plant response rating, Rice (rice (Oryza saliva) [16]; Rate 62 g/ha): 0 | Plant response rating, Rice (rice (Oryza saliva) [16]; Rate 125 g/ha): 0 | Plant response rating, Foxtail, Giant [17, 30]: 0 | Plant response rating, Foxtail, Giant [17, 31]: 0 | Plant response rating, Crabgrass [18, 30]: 0 | Plant response rating, Crabgrass [18, 31]: 0 | Plant response rating, Lambsquarters [19, 30]: 0 | Plant response rating, Lambsquarters [19, 31]: 0 | Plant response rating, Velvetleaf [20, 30]: 0 | Plant response rating, Velvetleaf [20, 31]: 0 | Plant response rating, Corn (corn (Zea mays) [21]; [30]): 0 | Plant response rating, Corn (corn (Zea mays) [21]; [31]): 0 | Plant response rating, Morningglory [22, 30]: 0 | Plant response rating, Morningglory [22, 31]: 0 | Plant response rating, Surinam grass [23, 30]: 0 | Plant response rating, Surinam grass [23, 31]: 0 | Plant response rating, Barnyardgrass [24, 30]: 0 | Plant response rating, Barnyardgrass [24, 31]: 0 | Plant response rating, Cocklebur [25, 30]: 0 | Plant response rating, Cocklebur [25, 31]: 0 | Plant response rating, Rice (rice (Oryza saliva) [26]; [30]): 0 | Plant response rating, Rice (rice (Oryza saliva) [26]; [31]): 0 | Plant response rating, Pigweed [27, 30]: 0 | Plant response rating, Pigweed [27, 31]: 0

CCCOC(=O)c1cccc(N2CCC(n3ccc(C(C)(C)C)n3)C2=O)c1 (centres unmarked) [Compound 123]
Plant response rating, Foxtail, Giant [1, 28]: 0 | Plant response rating, Wheat [2, 28]: 0 | Plant response rating, Crabgrass [3, 28]: 0 | Plant response rating, Lambsquarters [4, 28]: 0 | Plant response rating, Velvetleaf [5, 28]: 0 | Plant response rating, Corn (corn (Zea mays) [6]; [28]): 0 | Plant response rating, Corn (corn (Zea mays) [6]; [29]): 0 | Plant response rating, Morningglory [7, 28]: 0 | Plant response rating, Surinam grass [8, 28]: 0 | Plant response rating, Surinam grass [8, 29]: 0 | Plant response rating, Wild Oat (wild oat (Avena fatua); [28]): 0 | Plant response rating, Barnyardgrass [9, 28]: 0 | Plant response rating, Barnyardgrass [9, 29]: 0 | Plant response rating, Cocklebur [10, 28]: 30 | Plant response rating, Cocklebur [10, 29]: 80 | Plant response rating, Pigweed [11, 28]: 0 | Plant response rating, Blackgrass [12, 29]: 0 | Flatsedge plant response rating ([13]; Rate 250 g/ha): 50 | Flatsedge plant response rating ([13]; Rate 500 g/ha): 90 | Plant response rating, Flatsedge ([13]; Rate 62 g/ha): 30 | Plant response rating, Flatsedge ([13]; Rate 125 g/ha): 30 | Barnyardgrass plant response rating ([14]; Rate 250 g/ha): 0 | Barnyardgrass plant response rating ([14]; Rate 500 g/ha): 0 | Plant response rating, Barnyardgrass ([14]; Rate 62 g/ha): 0 | Plant response rating, Barnyardgrass ([14]; Rate 125 g/ha): 0 | Ducksalad plant response rating ([15]; Rate 250 g/ha): 60 | Ducksalad plant response rating ([15]; Rate 500 g/ha): 70 | Plant response rating, Ducksalad ([15]; Rate 62 g/ha): 20 | Plant response rating, Ducksalad ([15]; Rate 125 g/ha): 20 | Rice plant response rating (rice (Oryza saliva) [16]; Rate 250 g/ha): 0 | Rice plant response rating (rice (Oryza saliva) [16]; Rate 500 g/ha): 0 | Plant response rating, Rice (rice (Oryza saliva) [16]; Rate 62 g/ha): 0 | Plant response rating, Rice (rice (Oryza saliva) [16]; Rate 125 g/ha): 0 | Plant response rating, Foxtail, Giant [17, 30]: 0 | Plant response rating, Foxtail, Giant [17, 31]: 0 | Plant response rating, Crabgrass [18, 30]: 60 | Plant response rating, Crabgrass [18, 31]: 0 | Plant response rating, Lambsquarters [19, 30]: 60 | Plant response rating, Lambsquarters [19, 31]: 0 | Plant response rating, Velvetleaf [20, 30]: 0 | Plant response rating, Velvetleaf [20, 31]: 0 | Plant response rating, Corn (corn (Zea mays) [21]; [30]): 0 | Plant response rating, Corn (corn (Zea mays) [21]; [31]): 0 | Plant response rating, Morningglory [22, 30]: 0 | Plant response rating, Morningglory [22, 31]: 0 | Plant response rating, Surinam grass [23, 30]: 0 | Plant response rating, Surinam grass [23, 31]: 0 | Plant response rating, Barnyardgrass [24, 30]: 0 | Plant response rating, Barnyardgrass [24, 31]: 0 | Plant response rating, Cocklebur [25, 30]: 0 | Plant response rating, Cocklebur [25, 31]: 0 | Plant response rating, Rice (rice (Oryza saliva) [26]; [30]): 0 | Plant response rating, Rice (rice (Oryza saliva) [26]; [31]): 0 | Plant response rating, Pigweed [27, 30]: 70 | Plant response rating, Pigweed [27, 31]: 0
